Tests used:
[1] = tested on: Epac1-induced H-Ras activation in rat neonatal cardiac myocytes; test: Epac1-induced H-Ras activation, H-Ras-GTP pull-down in rat neonatal cardiac myocytes; type: cell-based; conditions: rat neonatal cardiac myocytes transfected with Epac1; CE3F4 30 min; Sp-007 10 μM, 10 min; FIG. 3B
Protocol: The effects of CE3F4 to prevent Epac1-induced H-Ras activation was determined by extraction of GTP-loaded H-Ras from cell lysates with the immobilized Ras-binding domain of Raf1.
HEK293 cells (FIG. 3A) or rat neonatal cardiac myocytes (FIG. 3B) were transfected with Epac1. 24 h after transfection, cells were preincubated or not with CE3F4 for 30 min and were then treated or not with Sp-007 (10 μM) for 10 min. In FIG. 3C, HEK293 cells overexpressing β1-AR and transfected with Epac1 were pretreated or not with 20 μM of CE3F4 for 30 min and stimulated or not with Iso for 10 min. Amounts of H-Ras-GTP were determined by pull-down assays. The bar graph represents the mean±S.E.M. of 5 (FIG. 3A) or 2 (FIG. 3B, 3C) independent experiments. Results are expressed as the percentage of unstimulated control cells.
Cardiac myocytes were isolated as previously described by Wollert and colleagues (1996). HEK293 cells stably expressing the β1-adrenergic receptor (β1-AR) was a gift of Dr. Shenoy (Duke University). HEK293 cells were maintained in MEM with FBS (Foetal Bovine Serum; 10%) and penicillin-streptomycin (1%). All media, sera and antibiotics used in cell culture were purchased from Invitrogen (Cergy Pontoise, France). […]

[2] = tested on: Iso-induced NFAT-Luc transcriptional activation; test: NFAT-Luc transcriptional activation (Firefly luciferase assay) in neonatal cardiomyocytes; type: cell-based, rat; conditions: CE3F4 20 μM, 30 min pretreatment; Iso 10 μM, 8 h; FIG. 4B
Protocol: ANF and NFAT promoters were fused to the Firefly luciferase gene (ANF-Luc) (NFAT-Luc) to detect ANF and NFAT by Firefly Luciferase assay (see Materiel and Methods).
Rat neonatal cardiomyocytes were cotransfected with ANF-Luc and Epac1 or empty vector pcDNA3 as control. One day after transfection, cells were pretreated or not with CE3F4 (20 μM) for 30 min and stimulated or not with Iso (10 μM) for 8 h. Cells were then assayed for Luciferase activity. B) Iso-induced NFAT-Luc Transcriptional Activation is Blocked by CE3F4: Neonatal cardiomyocytes were transfected with NFAT-Luc. One day later cells were pretreated or not with CE3F4 (20 μM) for 30 min and stimulated or not with Iso (10 μM) for 8 h. The day after, cells were assayed for Luciferase activity.
Results were normalized to control for each experiment, and were expressed as means±S.E.M of at 4 (FIG. 4A) or 5 (FIG. 4B) independent experiments performed in triplicates.
The rat ANF promoter fused to the Firefly luciferase reporter gene (ANF-Luc) by Dr K. Knowlton, Epac and Rap1 plasmid construct (Epac1^WT) by Drs J. L. Bos and J. de Gunzburg, respectively. The Firefly luciferase reporter plasmid driven by four NFAT consensus binding sites (NFAT-Luc) was purchased from Stratagene. […]
Cells were lysed, and luminescence was detected using the Luciferase Assay System (Promega) according to the manufacturer's instructions with Tecan Infinite.

Compound: CC1CCc2c(cc(Br)c(F)c2Br)N1C=O (racemic) [CE3F4]
- Amount of Ras-GTP induced by Sp-007 [1]: decreased
- Effect on Iso-induced NFAT transcriptional activity [2]: prevented
